Experimental data reported in patent US9951372B2, “Compounds and methods for assaying redox state of metabolically active cells and methods for measuring NAD(P)/NAD(P)H” (PROMEGA CORPORATION, priority 2011, dated 2018).
Read-outs that look alike come from different tables or passages of the source.

Key:
[1] = system: HeLa cells; test: Fluorescent imaging of live cells; format: cell-based; conditions: 10 μM substrate
Method: HeLa cells were plated at 40,000 cell/well into wells of an 8-well chambered coverslip and incubated at 37° C.+5% CO2. The media (DMEM) was replaced with warm complete media (with 10% FBS) containing 10 μM PBI-4412, 4413, 4440 or 4441. Cells were then transferred to a confocal microscope for imaging using 10% λ488 nm laser power (4412, 4413, and 4441) or 5% laser power (4440). All images (FIGS. 6a-d) are at 30× magnification.

[2] = system: Clostridium diaphorase; test: Fluorescent NADH detection assay, Clostridium diaphorase; format: biochemical; conditions: for FLUs: 1 u/ml Clostridium diaphorase; for Fluorescence time course, Clostridium: 10 uM NADH
Method: Each fluorescent substrate (PBI-4412, 4413, 4440, and 4441) was incubated at 920 μM with 0 μM or 10 μM NADH (Sigma) or a titration of NADH (Table 8) and 1 u/ml rat diaphorase (Sigma) or 1 u/ml Clostridium diaphorase (Sigma) in a volume of 100 μl in 50 mM Tris pH 7.5. Single reactions were prepared in the wells of a 96-well black plate at room temperature. Fluorescence was monitored over the course of two hours at excitation and emission wavelengths of 485 and 527, respectively, using a fluorescence plate reader. […] Table 7 and FIGS. 24a-b show the reaction time course with each substrate with 10 uM NADH. Table 8 and FIG. 25 show the NADH titration at 60 minutes with PBI-4440 and 4412 with rat diaphorase.

[3] = biological target: T1, rat diaphorase (Rattus norvegicus, UniProt P05982); format: biochemical; conditions: for Fluorescence time course, Rat: 10 uM NADH
T1 construct: purchased Sigma
T1 sequence (P05982 2-274 limits assumed): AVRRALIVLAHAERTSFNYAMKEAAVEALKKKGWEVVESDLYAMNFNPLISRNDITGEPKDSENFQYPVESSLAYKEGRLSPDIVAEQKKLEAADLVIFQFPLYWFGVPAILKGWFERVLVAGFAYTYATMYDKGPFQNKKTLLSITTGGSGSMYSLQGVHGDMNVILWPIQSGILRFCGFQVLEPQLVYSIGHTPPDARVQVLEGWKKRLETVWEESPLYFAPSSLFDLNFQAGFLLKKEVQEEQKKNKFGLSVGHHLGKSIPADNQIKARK

[4] = system: Jurkat cells; test: Measuring metabolically active cells with quinone coelenterazine derivatives; format: cell-based, human; conditions: Jurkat cell dilutions; 30 minute incubation; Oplophorus luciferase detection reagent
Method: Two-fold serial dilutions of Jurkat cells were prepared in PBS, and 50 μl per well transferred to wells in 96-well plates. Compound PBI 4600 and 4601 were diluted in PBS to make 50 μM and 100 μM stocks, respectively. 10 μl of prepared compound stocks were added to the cells, and the cells were placed into 37° C., 5% CO2 incubator. Following a 30 minute incubation, the cells were removed from incubator, cooled at room temperature for 10 minutes, and 50 μl of Oplophorus luciferase detection reagent (Promega Corporation) added directly to the wells. The samples were mixed, incubated at room temperature for 20 minutes, and luminescence measured.

[5] = system: HEK293 cells; test: Measuring metabolically active cells with quinone fluorescein derivatives; format: cell-based; conditions: HEK293 cell dilutions; 60 minutes; 480ex/530em
Method: i. Two-fold serial dilutions of HEK293 cells were prepared in full DMEM media, and 100 μl per well were transferred into wells of 96-well plates. Compounds PBI 4440 and 4412 were diluted in full DMEM media to make 20 μM and 10 μM stocks, respectively. 100 μl of the prepared compound stocks were added to the cells, and the cells were incubated for 60 minutes in a 37° C., 5% CO2 incubator. Following incubation, the cells were removed from incubator, and fluorescence measured with Tecan Infinite 500 at 480ex/Em530em wavelength.

[6] = 10 μM NADH, 60 min, substrate 920 μM
[7] = 0 μM NADH, 60 min, 1 u/ml rat diaphorase
[8] = 10 μM NADH, 60 min, 1 u/ml rat diaphorase, substrate 920 μM

CC1=C(C)C(=O)C(C(C)(C)CC(=O)N(C)CCN(C)C(=O)Oc2ccc3c(c2)Oc2cc(OC(=O)N(C)CCN(C)C(=O)CC(C)(C)C4=C(C)C(=O)C(C)=C(C)C4=O)ccc2C32OC(=O)c3ccccc32)=C(C)C1=O [PBI 4441, Bis-quinone trimethyllock diamine fluorescein]
reduction of substrate in live cells (confocal images) [1]: only reduced once inside cells | FLUs ([2]; 0 μM NADH, 60 min): 314 FLUs | FLUs [2, 6]: 2570 FLUs | Fluorescence time course, Clostridium ([2]; 2 min): 354 FLUs | Fluorescence time course, Clostridium ([2]; 4 min): 481 FLUs | Fluorescence time course, Clostridium ([2]; 5 min): 576 FLUs | Fluorescence time course, Clostridium ([2]; 10 min): 1152 FLUs | Fluorescence time course, Clostridium ([2]; 20 min): 1974 FLUs | Fluorescence time course, Clostridium ([2]; 30 min): 2334 FLUs | Fluorescence time course, Clostridium ([2]; 40 min): 2515 FLUs | Fluorescence time course, Clostridium ([2]; 50 min): 2514 FLUs | Fluorescence time course, Clostridium ([2]; 60 min): 2570 FLUs | Fluorescence time course, Clostridium ([2]; 70 min): 2584 FLUs | Fluorescence time course, Clostridium ([2]; 80 min): 2561 FLUs | Fluorescence time course, Clostridium ([2]; 90 min): 2539 FLUs | Fluorescence time course, Clostridium ([2]; 100 min): 2555 FLUs | Fluorescence time course, Clostridium ([2]; 110 min): 2515 FLUs | Fluorescence time course, Clostridium ([2]; 120 min): 2570 FLUs | FLUs [3, 7]: 120 FLUs | FLUs [3, 8]: 7387 FLUs | Fluorescence time course, Rat ([3]; 2 min): 302 FLUs | Fluorescence time course, Rat ([3]; 4 min): 608 FLUs | Fluorescence time course, Rat ([3]; 5 min): 827 FLUs | Fluorescence time course, Rat ([3]; 10 min): 1961 FLUs | Fluorescence time course, Rat ([3]; 20 min): 3454 FLUs | Fluorescence time course, Rat ([3]; 30 min): 4460 FLUs | Fluorescence time course, Rat ([3]; 40 min): 5442 FLUs | Fluorescence time course, Rat ([3]; 50 min): 6457 FLUs | Fluorescence time course, Rat ([3]; 60 min): 7387 FLUs | Fluorescence time course, Rat ([3]; 70 min): 8891 FLUs | Fluorescence time course, Rat ([3]; 80 min): 9545 FLUs | Fluorescence time course, Rat ([3]; 90 min): 9915 FLUs | Fluorescence time course, Rat ([3]; 100 min): 10496 FLUs | Fluorescence time course, Rat ([3]; 110 min): 10736 FLUs | Fluorescence time course, Rat ([3]; 120 min): 11149 FLUs

CC1=C(C)C(=O)C(C(C)(C)CC(=O)N(C)CCN(C)C(=O)Oc2c(Cc3ccco3)nc3c(Cc4ccccc4)nc(-c4ccccc4)cn23)=C(C)C1=O [PBI 4600]
relationship of luminescence to cell number [4]: linear correlation between cell number and luminescence

CC1=CC(=O)C(C)=C(C(C)(C)CC(=O)N(C)CCN(C)C(=O)Oc2ccc3c(c2)Oc2cc(OC(=O)N(C)CCN(C)C(=O)CC(C)(C)C4=C(C)C(=O)C=C(C)C4=O)ccc2C32OC(=O)c3ccccc32)C1=O [PBI 4413, Bis-quinone trimethyllock diamine fluorescein]
reduction of substrate in live cells (confocal images) [1]: only reduced once inside cells | FLUs ([2]; 0 μM NADH, 60 min): 255 FLUs | FLUs [2, 6]: 2517 FLUs | Fluorescence time course, Clostridium ([2]; 2 min): 264 FLUs | Fluorescence time course, Clostridium ([2]; 4 min): 457 FLUs | Fluorescence time course, Clostridium ([2]; 5 min): 698 FLUs | Fluorescence time course, Clostridium ([2]; 10 min): 1195 FLUs | Fluorescence time course, Clostridium ([2]; 20 min): 2167 FLUs | Fluorescence time course, Clostridium ([2]; 30 min): 2896 FLUs | Fluorescence time course, Clostridium ([2]; 40 min): 3329 FLUs | Fluorescence time course, Clostridium ([2]; 50 min): 3519 FLUs | Fluorescence time course, Clostridium ([2]; 60 min): 3664 FLUs | Fluorescence time course, Clostridium ([2]; 70 min): 3803 FLUs | Fluorescence time course, Clostridium ([2]; 80 min): 3841 FLUs | Fluorescence time course, Clostridium ([2]; 90 min): 3798 FLUs | Fluorescence time course, Clostridium ([2]; 100 min): 3801 FLUs | Fluorescence time course, Clostridium ([2]; 110 min): 3820 FLUs | Fluorescence time course, Clostridium ([2]; 120 min): 3821 FLUs | FLUs [3, 7]: 39 FLUs | FLUs [3, 8]: 7397 FLUs | Fluorescence time course, Rat ([3]; 2 min): 180 FLUs | Fluorescence time course, Rat ([3]; 4 min): 419 FLUs | Fluorescence time course, Rat ([3]; 5 min): 545 FLUs | Fluorescence time course, Rat ([3]; 10 min): 1091 FLUs | Fluorescence time course, Rat ([3]; 20 min): 2151 FLUs | Fluorescence time course, Rat ([3]; 30 min): 3407 FLUs | Fluorescence time course, Rat ([3]; 40 min): 4669 FLUs | Fluorescence time course, Rat ([3]; 50 min): 6127 FLUs | Fluorescence time course, Rat ([3]; 60 min): 7397 FLUs | Fluorescence time course, Rat ([3]; 70 min): 9925 FLUs | Fluorescence time course, Rat ([3]; 80 min): 10959 FLUs | Fluorescence time course, Rat ([3]; 90 min): 12101 FLUs | Fluorescence time course, Rat ([3]; 100 min): 13732 FLUs | Fluorescence time course, Rat ([3]; 110 min): 15434 FLUs | Fluorescence time course, Rat ([3]; 120 min): 16666 FLUs

CC1=CC(=O)C(C)=C(C(C)(C)CC(=O)N(C)CCN(C)C(=O)Oc2ccc3c(c2)Oc2cc(O)ccc2C32OC(=O)c3ccccc32)C1=O (centres unmarked) [PBI 4412, Mono-quinone trimethyllock diamine fluorescein]
reduction of substrate in live cells (confocal images) [1]: only reduced once inside cells | FLUs ([2]; 0 μM NADH, 60 min): 3940 FLUs | FLUs [2, 6]: 125352 FLUs | Fluorescence time course, Clostridium ([2]; 2 min): 9933 FLUs | Fluorescence time course, Clostridium ([2]; 4 min): 24883 FLUs | Fluorescence time course, Clostridium ([2]; 5 min): 33881 FLUs | Fluorescence time course, Clostridium ([2]; 10 min): 60458 FLUs | Fluorescence time course, Clostridium ([2]; 20 min): 95260 FLUs | Fluorescence time course, Clostridium ([2]; 30 min): 112465 FLUs | Fluorescence time course, Clostridium ([2]; 40 min): 120688 FLUs | Fluorescence time course, Clostridium ([2]; 50 min): 123934 FLUs | Fluorescence time course, Clostridium ([2]; 60 min): 125352 FLUs | Fluorescence time course, Clostridium ([2]; 70 min): 126364 FLUs | Fluorescence time course, Clostridium ([2]; 80 min): 125242 FLUs | Fluorescence time course, Clostridium ([2]; 90 min): 124786 FLUs | Fluorescence time course, Clostridium ([2]; 100 min): 124434 FLUs | Fluorescence time course, Clostridium ([2]; 110 min): 124460 FLUs | Fluorescence time course, Clostridium ([2]; 120 min): 124182 FLUs | relationship of fluorescence to cell number [5]: linear correlation between cell number and fluorescence | FLUs [3, 7]: 3772 FLUs | FLUs [3, 8]: 170571 FLUs | Fluorescence time course, Rat ([3]; 2 min): 10099 FLUs | Fluorescence time course, Rat ([3]; 4 min): 24171 FLUs | Fluorescence time course, Rat ([3]; 5 min): 33247 FLUs | Fluorescence time course, Rat ([3]; 10 min): 62502 FLUs | Fluorescence time course, Rat ([3]; 20 min): 106834 FLUs | Fluorescence time course, Rat ([3]; 30 min): 133278 FLUs | Fluorescence time course, Rat ([3]; 40 min): 151941 FLUs | Fluorescence time course, Rat ([3]; 50 min): 162636 FLUs | Fluorescence time course, Rat ([3]; 60 min): 170571 FLUs | Fluorescence time course, Rat ([3]; 70 min): 175380 FLUs | Fluorescence time course, Rat ([3]; 80 min): 177516 FLUs | Fluorescence time course, Rat ([3]; 90 min): 178423 FLUs | Fluorescence time course, Rat ([3]; 100 min): 180027 FLUs | Fluorescence time course, Rat ([3]; 110 min): 182051 FLUs | Fluorescence time course, Rat ([3]; 120 min): 181077 FLUs | FLUs ([3]; NADH 0 μM, 60 minutes, rat diaphorase): 3772 FLUs | FLUs ([3]; NADH 1.25 μM, 60 minutes, rat diaphorase): 26228 FLUs | FLUs ([3]; NADH 2.5 μM, 60 minutes, rat diaphorase): 51005 FLUs | FLUs ([3]; NADH 5 μM, 60 minutes, rat diaphorase): 97995 FLUs | FLUs ([3]; NADH 10 μM, 60 minutes, rat diaphorase): 170571 FLUs | FLUs ([3]; NADH 20 μM, 60 minutes, rat diaphorase): 183286 FLUs | FLUs ([3]; NADH 40 μM, 60 minutes, rat diaphorase): 185532 FLUs | FLUs ([3]; NADH 80 μM, 60 minutes, rat diaphorase): 183372 FLUs

CC1=C(C)C(=O)C(C(C)(C)CC(=O)N(C)CCN(C)C(=O)Oc2c(Cc3ccccc3)nc3c(Cc4ccccc4)nc(-c4ccccc4)cn23)=C(C)C1=O [PBI 4601]
relationship of luminescence to cell number [4]: linear correlation between cell number and luminescence
